According to the Kinase Knowledgebase extract (Sharma et al. 2016):

Columns and labels:
[1] = system: EGFR (Human), P00533 [Assessment of Proliferation in EGFR DelE746_A750 Mutant Expressing HCC827 Cells]
[2] = system: EGFR (Human), P00533 [T790M/L858R]; settings: nci-h1975
[3] = system: EGFR (human), P00533 [WT]; settings: a431
[4] = molecular target: EGFR (human), P00533 [WT]

EGFR (Human), P00533 [T790M/L858R], sequence (P00533 whole entry T790M/L858R, looked up): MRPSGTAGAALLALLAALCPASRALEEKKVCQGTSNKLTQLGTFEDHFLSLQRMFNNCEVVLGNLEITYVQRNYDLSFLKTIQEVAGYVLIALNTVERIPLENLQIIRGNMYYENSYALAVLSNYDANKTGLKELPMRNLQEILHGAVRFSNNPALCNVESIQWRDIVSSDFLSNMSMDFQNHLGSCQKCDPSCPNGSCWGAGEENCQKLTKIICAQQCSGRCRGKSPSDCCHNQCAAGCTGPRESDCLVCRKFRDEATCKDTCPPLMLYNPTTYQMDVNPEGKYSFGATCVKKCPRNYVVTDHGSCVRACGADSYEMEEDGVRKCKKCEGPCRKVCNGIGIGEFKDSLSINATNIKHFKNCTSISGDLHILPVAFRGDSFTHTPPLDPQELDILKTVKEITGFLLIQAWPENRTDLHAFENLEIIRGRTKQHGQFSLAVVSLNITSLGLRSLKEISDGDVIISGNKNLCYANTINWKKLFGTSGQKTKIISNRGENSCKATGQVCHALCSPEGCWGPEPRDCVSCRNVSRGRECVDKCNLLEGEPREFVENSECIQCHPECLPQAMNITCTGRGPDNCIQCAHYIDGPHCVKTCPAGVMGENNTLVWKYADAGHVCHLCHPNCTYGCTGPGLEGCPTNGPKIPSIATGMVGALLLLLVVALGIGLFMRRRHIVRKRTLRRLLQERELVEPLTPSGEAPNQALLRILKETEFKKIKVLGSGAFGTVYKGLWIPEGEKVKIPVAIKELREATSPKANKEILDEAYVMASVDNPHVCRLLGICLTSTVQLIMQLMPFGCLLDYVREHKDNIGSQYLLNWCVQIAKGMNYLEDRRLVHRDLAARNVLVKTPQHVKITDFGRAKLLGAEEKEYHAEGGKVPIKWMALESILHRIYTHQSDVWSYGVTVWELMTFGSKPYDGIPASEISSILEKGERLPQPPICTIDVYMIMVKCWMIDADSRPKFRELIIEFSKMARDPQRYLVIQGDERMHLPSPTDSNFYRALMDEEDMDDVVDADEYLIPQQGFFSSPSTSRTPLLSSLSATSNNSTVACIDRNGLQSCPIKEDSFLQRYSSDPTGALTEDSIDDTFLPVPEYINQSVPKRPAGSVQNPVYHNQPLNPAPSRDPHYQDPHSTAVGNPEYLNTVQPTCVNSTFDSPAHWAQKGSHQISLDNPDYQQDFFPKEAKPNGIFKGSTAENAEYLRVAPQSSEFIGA
EGFR (human), P00533 [WT], sequence (P00533 whole entry, looked up): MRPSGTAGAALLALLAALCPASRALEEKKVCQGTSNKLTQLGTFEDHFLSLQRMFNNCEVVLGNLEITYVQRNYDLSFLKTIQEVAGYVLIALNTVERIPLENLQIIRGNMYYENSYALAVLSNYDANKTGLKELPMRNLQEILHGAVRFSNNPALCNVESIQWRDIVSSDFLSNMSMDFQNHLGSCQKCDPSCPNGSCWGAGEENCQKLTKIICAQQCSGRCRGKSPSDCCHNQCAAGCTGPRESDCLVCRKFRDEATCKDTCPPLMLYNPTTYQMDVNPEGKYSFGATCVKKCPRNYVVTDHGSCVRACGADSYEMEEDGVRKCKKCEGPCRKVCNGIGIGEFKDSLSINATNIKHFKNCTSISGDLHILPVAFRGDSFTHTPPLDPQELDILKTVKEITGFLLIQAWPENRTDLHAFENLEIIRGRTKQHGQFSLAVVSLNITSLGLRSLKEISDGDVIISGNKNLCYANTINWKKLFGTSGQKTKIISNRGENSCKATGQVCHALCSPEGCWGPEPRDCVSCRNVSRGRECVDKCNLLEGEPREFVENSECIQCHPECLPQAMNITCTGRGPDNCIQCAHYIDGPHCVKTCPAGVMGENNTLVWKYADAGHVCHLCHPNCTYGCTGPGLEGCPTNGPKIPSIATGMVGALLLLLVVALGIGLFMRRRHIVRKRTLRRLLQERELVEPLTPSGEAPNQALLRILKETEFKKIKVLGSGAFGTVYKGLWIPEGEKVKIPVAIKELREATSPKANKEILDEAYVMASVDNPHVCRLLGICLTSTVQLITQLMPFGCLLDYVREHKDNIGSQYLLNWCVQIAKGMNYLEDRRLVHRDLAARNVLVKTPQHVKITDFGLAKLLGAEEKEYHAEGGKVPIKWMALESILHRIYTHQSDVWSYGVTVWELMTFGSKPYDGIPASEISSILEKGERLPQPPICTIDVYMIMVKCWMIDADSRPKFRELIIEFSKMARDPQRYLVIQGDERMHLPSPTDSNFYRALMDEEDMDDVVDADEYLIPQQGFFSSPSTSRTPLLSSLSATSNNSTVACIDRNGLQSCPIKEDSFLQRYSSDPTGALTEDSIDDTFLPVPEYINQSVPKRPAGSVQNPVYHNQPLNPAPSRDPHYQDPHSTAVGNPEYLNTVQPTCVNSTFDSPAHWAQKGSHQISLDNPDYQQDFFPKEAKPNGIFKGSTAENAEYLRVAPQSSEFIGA
EGFR (Human), P00533 [Assessment of Proliferation in EGFR DelE746_A750 Mutant Expressing HCC827 Cells], sequence (P00533 whole entry, looked up, stated change not applied): as the sequence (P00533 whole entry, looked up) above

SMILES	GI50 [1]	GI50 [2]	GI50 [3]	IC50 [4]
C=CC(=O)Nc1cccc(Oc2nc(Nc3ccc(N4CCN(C)CC4)cc3)nc3ccoc23)c1	≤ 50 nM	≤ 50 nM	100 to 1000 nM	–
C=CC(=O)Nc1cccc(Oc2nc(Nc3ccc(N4CCN(C(C)C)CC4)cc3)nc3ccsc23)c1	≤ 50 nM	≤ 50 nM	100 to 1000 nM	–
C=CC(=O)Nc1cccc(Oc2nc(Nc3ccc(N4CCC(N5CCCCC5)CC4)cc3)nc3ccsc23)c1	≤ 50 nM	≤ 50 nM	–	100 to 1000 nM
C=CC(=O)Nc1cccc(Oc2nc(Nc3ccc(N4CCN(CC)CC4)cc3)nc3ccsc23)c1	≤ 50 nM	≤ 50 nM	100 to 1000 nM	–
C=CC(=O)Nc1cccc(Oc2nc(Nc3ccc(CN(C)C)cc3)nc3ccsc23)c1	≤ 50 nM	≤ 50 nM	100 to 1000 nM	–
C=CC(=O)Nc1cccc(Nc2nc(Nc3ccc(N4CCN(C)CC4)cc3)nc3ccsc23)c1	≤ 50 nM	≤ 50 nM	–	100 to 1000 nM
C=CC(=O)Nc1cccc(Oc2nc(Nc3ccc(N4CCN(C(C)C)CC4)cc3)nc3ccoc23)c1	≤ 50 nM	≤ 50 nM	100 to 1000 nM	–
C=CC(=O)Nc1cccc(Oc2nc(Nc3ccc(N4CCN(C5CCCCC5)CC4)cc3)nc3ccsc23)c1	≤ 50 nM	≤ 50 nM	100 to 1000 nM	–
C=CC(=O)Nc1cccc(Oc2nc(Nc3ccc(N4CCC(N5CCN(CC)CC5)CC4)cc3)nc3ccsc23)c1	≤ 50 nM	100 to 1000 nM	–	–
C=CC(=O)Nc1cccc(Oc2nc(Nc3ccc(N4CCN(C(C)(C)C)CC4)cc3)nc3ccsc23)c1	≤ 50 nM	≤ 50 nM	–	–
C=CC(=O)Nc1cccc(Oc2nc(Nc3ccc(N4CCC(n5ccnc5)CC4)cc3)nc3ccsc23)c1	≤ 50 nM	≤ 50 nM	–	–
C=CC(=O)Nc1cccc(Sc2nc(Nc3ccc(C4CCN(C)CC4)c(F)c3)nc3ccsc23)c1	≤ 50 nM	≤ 50 nM	–	–
C=CC(=O)Nc1cccc(Oc2nc(Nc3ccc(N4CCN(S(=O)(=O)CC)CC4)cc3)nc3ccsc23)c1	≤ 50 nM	50 to 100 nM	–	–
C=CC(=O)Nc1cccc(Oc2nc(Nc3ccc(N4CC[S+]([O-])CC4)cc3)nc3ccsc23)c1	≤ 50 nM	≤ 50 nM	–	–
C=CC(=O)Nc1cccc(Oc2nc(Nc3ccc(N4CCN(CCO)CC4)cn3)nc3ccsc23)c1	≤ 50 nM	50 to 100 nM	–	–
C=CC(=O)Nc1cccc(Oc2nc(Nc3ccc(C(=O)NC4CCN(C(C)C)CC4)cc3)nc3ccsc23)c1	≤ 50 nM	≤ 50 nM	100 to 1000 nM	–
C=CC(=O)Nc1cccc(Oc2nc(Nc3ccc(N4CCN(S(C)(=O)=O)CC4)cc3)nc3ccsc23)c1	50 to 100 nM	≤ 50 nM	–	–
C=CC(=O)Nc1cccc(Oc2nc(Nc3ccc(C4CCN(C)CC4)cc3)nc3ccsc23)c1	≤ 50 nM	≤ 50 nM	–	–
C=CC(=O)Nc1ccc(F)c(Nc2nc(Nc3ccc(N4CCN(C)CC4)cc3)nc3ccsc23)c1	≤ 50 nM	50 to 100 nM	–	–
C=CC(=O)Nc1cccc(Oc2nc(Nc3ccc(C4CCN(C)CC4)cc3OC)nc3ccsc23)c1	50 to 100 nM	≤ 50 nM	–	–
C=CC(=O)Nc1cccc(Oc2nc(Nc3ccc(N4CCN(C)CC4)cc3F)nc3ccsc23)c1	50 to 100 nM	50 to 100 nM	–	–
C=CC(=O)Nc1cccc(Oc2nc(Nc3ccc4c(ccn4C)c3)nc3ccsc23)c1	50 to 100 nM	≤ 50 nM	–	–
C=CC(=O)Nc1cccc(Oc2nc(Nc3ccc(C(=O)NC4CCN(C)CC4)cc3)nc3ccsc23)c1	≤ 50 nM	≤ 50 nM	–	–
C=CC(=O)Nc1cccc(Oc2nc(Nc3ccc(CN(CC)CC)cc3)nc3ccsc23)c1	≤ 50 nM	≤ 50 nM	–	–
C=CC(=O)Nc1cccc(Oc2nc(Nc3ccc(CCS(C)(=O)=O)cc3)nc3ccsc23)c1	50 to 100 nM	≤ 50 nM	–	–
C=CC(=O)Nc1cccc(Nc2nc(Nc3ccc(OCCN(C)C)cc3)nc3ccsc23)c1	≤ 50 nM	≤ 50 nM	–	–
C=CC(=O)Nc1cccc(Oc2nc(Nc3ccc(C[S+](C)[O-])cc3)nc3ccsc23)c1 (stereo not drawn)	≤ 50 nM	≤ 50 nM	–	–
